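A five-concentration, 48-hour dose response in 96-well plates underlies each endpoint, interpolated linearly between surrounding concentrations. The concentration for 50% growth inhibition is given as GI50. TGI denotes the concentration required for complete inhibition of growth.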
Tests used:
Assay in all cases: DTP human tumour cell line panel, 48 h
ACHN renal = system: ACHN renal
HS 578T breast = system: HS 578T breast
CCRF-CEM leukemia = system: CCRF-CEM leukemia
OVCAR-5 ovarian = system: OVCAR-5 ovarian
SK-MEL-28 melanoma = system: SK-MEL-28 melanoma
MCF7 breast = system: MCF7 breast
U251 CNS = system: U251 CNS
SF-539 CNS = system: SF-539 CNS
RPMI-8226 leukemia = system: RPMI-8226 leukemia
OVCAR-4 ovarian = system: OVCAR-4 ovarian

Compound	GI50 (ACHN renal) [µM]	TGI (ACHN renal) [µM]	GI50 (HS 578T breast) [µM]	TGI (HS 578T breast) [µM]	GI50 (CCRF-CEM leukemia) [µM]	TGI (CCRF-CEM leukemia) [µM]	GI50 (OVCAR-5 ovarian) [µM]	TGI (OVCAR-5 ovarian) [µM]	GI50 (SK-MEL-28 melanoma) [µM]	TGI (SK-MEL-28 melanoma) [µM]	GI50 (MCF7 breast) [µM]	TGI (MCF7 breast) [µM]	GI50 (U251 CNS) [µM]	TGI (U251 CNS) [µM]	GI50 (SF-539 CNS) [µM]	TGI (SF-539 CNS) [µM]	GI50 (RPMI-8226 leukemia) [µM]	TGI (RPMI-8226 leukemia) [µM]	TGI (OVCAR-4 ovarian) [µM]	GI50 (OVCAR-4 ovarian) [µM]
O=[N+]([O-])c1ccc2ncccc2c1Cl	4.69	22.3	7.69	> 100	2.54	29.8	3.44	> 100	6.29	20.8	3.55	12.9	3.38	11.8	2.76	34.2	0.435	6.57		
Cn1c(=S)c2[nH]c(SCCN3CCCC3)nc2n(C)c1=O		> 100		> 100		> 100		> 100		> 100		> 100		> 100		> 100		> 100	> 100	
CCCCn1sc(=O)n(Cc2ccc(CNC(=O)OCc3ccc4c(Br)cc(Br)c(O)c4n3)cc2)c1=O	0.505	> 100	0.959	> 100	0.353	> 100	> 24.7	> 100		> 100	0.369	> 100	0.659	> 100	0.23	0.633	0.501	> 100	> 100	0.701
CCC1CCc2nc3sc(C(=O)Nc4ccccc4C)c(N)c3cc2C1 (stereo not given)	0.835	> 100	0.514	> 100	0.331	> 100			0.623	> 100	0.287	> 100	0.648	> 100	0.398	> 100	0.329	> 100	> 100	0.694
C#CCOc1cccc(Nc2ncnc3ccc(NC(=O)CCl)cc23)c1	0.253	7.73	4.12	> 100	0.0725	> 33.6	3.04	19.4	5.15	27	0.428	14.4	0.364	8.23	2.83	7.23	1.22	13.6	25.6	5.49
O=[N+]([O-])c1ccc(Sc2c3ccccc3nc3ccccc23)nc1		20.5		60.7		5.76		33.2		15.6		9.15		46.3		31.2		5.03	12.9	
CCN1C(=O)N(c2ccccc2)C2NN=c3s/c(=C4\C(=O)N(C(C)C)c5ccccc54)c(=O)n3C21 (stereo not given)	1.5	> 57.9	1.06	21.8	1.16	> 100	3.38	> 100	2.71	> 100	0.483	> 100	1.44	> 51.6	0.736	2.24	2.92	18	> 100	3.71

— PubChem BioAssay (NCI)
